Drawing on US10059701B2 (Merck Patent GmbH, priority 2015, dated 2018), this text covers IC50 for 20 compounds.

The term IC50 denotes the concentration needed to halve the response being measured.

Assay [1] deals with T1, IRAK1 (Homo sapiens, UniProt P51617).
T1 construct: His-TEV-IRAK1 (194-712); His (N); TEV cleavage site (N)
Description: IRAK1 enzymatic assay (ADP-Glo luminescence). The format is biochemical. The settings on record: purified human recombinant His-TEV-IRAK1 (194-712). As for the experimental part: IRAK1 is a human purified recombinant enzyme (His-TEV-IRAK1 (194-712))
In this assay, IRAK1 hydrolyses ATP and autophosphorylates. Measurement of IRAK-1 inhibition is performed in 384-well format based on luminescence assay (ADP-Glo™ Kinase Assay from Promega). Purified human recombinant IRAK1 (0.3 μg/ml) and serial diluted compounds in DMSO (range of concentration from 10 μM to 0.5 nM) or controls (1% DMSO) are incubated for 15 minutes at RT in assay buffer containing 50 mM Hepes pH 7.0, Fatty acid-free BSA 0.1%, Dithiothreitol (DTT) 2 mM, MgCl2 10 mM, EGTA 0.5 mM, Triton X-100 0.01%. The kinase reaction is then initiated by the addition of ATP […] After 2 hours of incubation at RT, the reaction is stopped and the unconsumed ATP depleted by the addition of ADP-Glo™ Reagent according to supplier instructions. After 40 minutes of incubation at RT, the Kinase Detection Reagent is then added to the assay plate according to supplier instructions. After 20 minutes of incubation at RT, the luminescence signal is measured with a luminometer (PerkinElmer Envision or equivalent reader).
A general note: ADP-Glo first removes unused ATP, then detects ADP through luciferase.

Assay [2] concerns the target T2, IRAK4 (Homo sapiens, UniProt Q9NWZ3).
T2 construct: His-TEV-IRAK4 (1-460); His (N); TEV cleavage site (N)
T2 sequence (Q9NWZ3 1-460): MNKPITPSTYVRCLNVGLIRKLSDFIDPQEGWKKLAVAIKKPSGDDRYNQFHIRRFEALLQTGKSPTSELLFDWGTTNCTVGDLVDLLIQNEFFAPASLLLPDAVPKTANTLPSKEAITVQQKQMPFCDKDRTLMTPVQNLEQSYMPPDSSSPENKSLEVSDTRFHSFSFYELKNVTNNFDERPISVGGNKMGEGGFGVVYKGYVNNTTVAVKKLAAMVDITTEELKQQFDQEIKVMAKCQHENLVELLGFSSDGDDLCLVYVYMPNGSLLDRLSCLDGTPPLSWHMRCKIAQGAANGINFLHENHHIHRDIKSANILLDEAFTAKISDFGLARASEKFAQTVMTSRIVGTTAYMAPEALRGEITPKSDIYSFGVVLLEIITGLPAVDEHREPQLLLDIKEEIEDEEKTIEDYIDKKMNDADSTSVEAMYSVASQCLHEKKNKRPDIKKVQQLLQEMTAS
The experiment in a line: IRAK4 enzymatic assay (ADP-Glo luminescence). Type of assay: biochemical. The settings on record: purified human recombinant His-TEV-IRAK4 (1-460), ATP 2 μM. As for the experimental part: IRAK4 is a human purified recombinant enzyme (His-TEV-IRAK4 (1-460)).
In this assay, IRAK4 hydrolyses ATP, autophosphorylates and phosphorylates a Serine/Threonine generic peptidic substrate (STK: 61ST1BLC from CisBio International). Measurement of IRAK-4 inhibition is performed in 384-well format based on a luminescence assay (ADP-Glo™ Kinase Assay from Promega). Purified human recombinant IRAK4 (0.3 μg/ml) and serial diluted compounds in DMSO (range of concentration from 10 μM to 0.5 nM) or controls (1% DMSO) are incubated for 15 minutes at RT in assay buffer containing 50 mM Hepes pH 7.0, Fatty acid-free BSA 0.1%, Dithiothreitol (DTT) 2 mM, MgCl2 10 mM, EGTA 0.5 mM, Triton X-100 0.01%, MnCl2 5 mM. The kinase reaction is then initiated by the addition of ATP (2 μM) and the peptidic substrate STK1-biotin peptide (300 nM). After 2 hours of incubation at RT, the reaction is stopped and the unconsumed ATP depleted by the addition of ADP-Glo™ Reagent according to supplier instructions. After 40 minutes of incubation at RT, the Kinase Detection Reagent is then added to the assay plate according to supplier instructions. After 20 minutes of incubation at RT, the luminescence signal is measured with a plate-reading luminometer (PerkinElmer Envision or equivalent reader).

A value given as a limit tells only on which side of the number the result lay.

T1 sequence (P51617 194-712): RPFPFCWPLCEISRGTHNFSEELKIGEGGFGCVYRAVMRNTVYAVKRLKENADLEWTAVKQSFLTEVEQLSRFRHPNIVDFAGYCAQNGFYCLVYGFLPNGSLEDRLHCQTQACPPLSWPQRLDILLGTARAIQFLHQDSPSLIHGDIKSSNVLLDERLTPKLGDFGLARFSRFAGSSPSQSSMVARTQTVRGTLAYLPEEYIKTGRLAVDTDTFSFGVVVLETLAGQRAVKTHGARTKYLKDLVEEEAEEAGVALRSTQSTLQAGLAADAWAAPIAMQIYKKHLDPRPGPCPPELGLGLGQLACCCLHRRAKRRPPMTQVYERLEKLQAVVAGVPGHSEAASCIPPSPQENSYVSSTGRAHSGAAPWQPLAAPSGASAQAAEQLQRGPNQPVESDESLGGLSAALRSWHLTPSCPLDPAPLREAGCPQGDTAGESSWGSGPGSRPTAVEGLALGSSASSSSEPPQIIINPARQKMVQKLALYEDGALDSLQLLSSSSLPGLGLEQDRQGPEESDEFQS

As for `O=C(/N=c1\[nH]c2cc(N3CCCOC3=O)ccc2n1CCCO)c1cccc(C(F)(F)F)c1` [Compound 33, (E)-N-(1-(3-hydroxypropyl)-5-(2-oxo-1,3-oxazinan-3-yl)-1H-benzo[d]imidazol-2(3H)-ylidene)-3-(trifluoromethyl)benzamide], the concentration for half-maximal inhibition (IC50) in assay [1] and in assay [2] was no more than 100 nM each time.
With `NC(=O)/C=C/c1cccc(C(=O)/N=c2\[nH]c3cc(N4CCOCC4=O)ccc3n2CCCO)c1` [Compound 34, (E)-3-((E)-3-amino-3-oxoprop-1-en-1-yl)-N-(1-(3-hydroxypropyl)-5-(3-oxomorpholino)-1H-benzo[d]imidazol-2(3H)-ylidene)benzamide], the IC50 in assay [1] and in assay [2] was no more than 100 nM in each case.
With `O=C(/N=c1\[nH]c2cc(N3CCOCC3=O)ccc2n1CCCO)c1cccc(F)c1` [Compound 35, (E)-3-fluoro-N-(1-(3-hydroxypropyl)-5-(3-oxomorpholino)-1H-benzo[d]imidazol-2(3H)-ylidene)benzamide], the 50% inhibitory concentration (IC50) in assay [1] is 100 to 1000 nM; in assay [2], no more than 100 nM.
In the same order, the values of `O=C(/N=c1\[nH]c2cc(N3CCOCC3=O)ccc2n1CCCO)c1cccc(C(=O)N2CCOCC2)c1` [Compound 36, (E)-N-(1-(3-hydroxypropyl)-5-(3-oxomorpholino)-1H-benzo[d]imidazol-2(3H)-ylidene)-3-(morpholine-4-carbonyl)benzamide] are 100 to 1000 nM and greater than 1000 nM.
In the same order, the values of `O=C(/N=c1\[nH]c2cc(N3CCOCC3=O)ccc2n1CCCO)c1cccc(Br)c1` [Compound 37, (E)-3-bromo-N-(1-(3-hydroxypropyl)-5-(3-oxomorpholino)-1H-benzo[d]imidazol-2(3H)-ylidene)benzamide] are 100 to 1000 nM and no more than 100 nM.
For `COc1ccc(C(=O)/N=c2\[nH]c3cc(N4CCOCC4=O)ccc3n2CCCO)cc1C#N` [Compound 38, (E)-3-cyano-N-(1-(3-hydroxypropyl)-5-(3-oxomorpholino)-1H-benzo[d]imidazol-2(3H)-ylidene)-4-methoxybenzamide] the same measures were greater than 1000 nM and greater than 1000 nM.
For `O=C(/N=c1\[nH]c2cc(N3CCOCC3=O)ccc2n1C1(CO)CCCCC1)c1cccc(C(F)(F)F)c1` [Compound 39, (E)-N-(1-(1-(hydroxymethyl)cyclohexyl)-5-(3-oxomorpholino)-1H-benzo[d]imidazol-2(3H)-ylidene)-3-(trifluoromethyl)benzamide], the concentration for half-maximal inhibition (IC50) in assay [1] and in assay [2] was greater than 1000 nM throughout.
In the case of `COc1cc2c(cc1N1CCOCC1=O)[nH]/c(=N\C(=O)c1cccc(C(F)F)c1)n2[C@H](C)CCO` [Compound 40, (R,E)-3-(difluoromethyl)-N-(1-(4-hydroxybutan-2-yl)-6-methoxy-5-(3-oxomorpholino)-1H-benzo[d]imidazol-2(3H)-ylidene)benzamide], the 50% inhibitory concentration (IC50) in assay [1] and in assay [2] was no more than 100 nM throughout.
In the case of `C[C@H](CCO)n1/c(=N/C(=O)c2cccc(C#N)c2)[nH]c2cc(N3CCCOC3=O)ccc21` [Compound 42, (R,E)-3-cyano-N-(1-(4-hydroxybutan-2-yl)-5-(2-oxo-1,3-oxazinan-3-yl)-1H-benzo[d]imidazol-2(3H)-ylidene)benzamide], the half-inhibitory concentration (IC50) in assay [1] is 100 to 1000 nM; in assay [2], no more than 100 nM.
For `C[C@H](CCO)n1/c(=N/C(=O)c2cccc(C(F)(F)F)c2)[nH]c2cc(N3CCCOC3=O)ccc21` [Compound 43, (R,E)-N-(1-(4-hydroxybutan-2-yl)-5-(2-oxo-1,3-oxazinan-3-yl)-1H-benzo[d]imidazol-2(3H)-ylidene)-3-(trifluoromethyl)benzamide] the same measures were 100 to 1000 nM and no more than 100 nM.
In the same order, the values of `C[C@H](CCO)n1/c(=N/C(=O)c2cccc(C(F)F)c2)[nH]c2cc(N3CCCOC3=O)ccc21` [Compound 44, (R,E)-3-(difluoromethyl)-N-(1-(4-hydroxybutan-2-yl)-5-(2-oxo-1,3-oxazinan-3-yl)-1H-benzo[d]imidazol-2(3H)-ylidene)benzamide] are 100 to 1000 nM and no more than 100 nM.
With `O=C(/N=c1\[nH]c2cc(N3CCOCC3=O)ccc2n1C1CCCCC1)c1cccc(C(F)(F)F)c1` [Compound 45, (E)-N-(1-cyclohexyl-5-(3-oxomorpholino)-1H-benzo[d]imidazol-2(3H)-ylidene)-3-(trifluoromethyl)benzamide], the values for the IC50 in assay [1] and in assay [2] were greater than 1000 nM and 100 to 1000 nM, respectively.
For `O=C(/N=c1\[nH]c2cc(N3CCCNC3=O)ccc2n1CCCO)c1cccc(C(F)F)c1` [Compound 46, (E)-3-(difluoromethyl)-N-(1-(3-hydroxypropyl)-5-(2-oxotetrahydropyrimidin-1(2H)-yl)-1H-benzo[d]imidazol-2(3H)-ylidene)benzamide] the same measures were 100 to 1000 nM and no more than 100 nM.
For the compound `CC(=O)NCc1cccc(C(=O)/N=c2\[nH]c3cc(N4CCOCC4=O)ccc3n2CCCO)c1` [Compound 47, (E)-3-(acetamidomethyl)-N-(1-(3-hydroxypropyl)-5-(3-oxomorpholino)-1H-benzo[d]imidazol-2(3H)-ylidene)benzamide], the concentration for half-maximal inhibition (IC50) in assay [1] and in assay [2] was 100 to 1000 nM each time.
Take `N#Cc1cccc(C(=O)/N=c2\[nH]c3cc(N4CCOCC4=O)c(Br)cc3n2CCCO)c1` [Compound 48, (E)-N-(6-bromo-1-(3-hydroxypropyl)-5-(3-oxomorpholino)-1H-benzo[d]imidazol-2(3H)-ylidene)-3-cyanobenzamide]: the figures for the IC50 in assay [1] and in assay [2] were 100 to 1000 nM and no more than 100 nM, respectively.
As to `O=C(/N=c1\[nH]c2cc(N3CCOCC3=O)c(Br)cc2n1CCCO)c1cccc(C(F)F)c1` [Compound 49, (E)-N-(6-bromo-1-(3-hydroxypropyl)-5-(3-oxomorpholino)-1H-benzo[d]imidazol-2(3H)-ylidene)-3-(difluoromethyl)benzamide], the 50% inhibitory concentration (IC50) in assay [1] is 100 to 1000 nM; in assay [2], no more than 100 nM.
With `O=C(/N=c1\[nH]c2cc(N3CCOCC3=O)c(Br)cc2n1CCCO)c1cccc(C(F)(F)F)c1` [Compound 50, (E)-N-(6-bromo-1-(3-hydroxypropyl)-5-(3-oxomorpholino)-1H-benzo[d]imidazol-2(3H)-ylidene)-3-(trifluoromethyl)benzamide], the IC50 in assay [1] was 100 to 1000 nM; in assay [2] it was no more than 100 nM.
In the case of `COc1cc2c(cc1N1CCOCC1=O)[nH]/c(=N\C(=O)c1cccc(C#N)c1)n2CC1(CO)CC1` [Compound 51, (E)-3-cyano-N-(1-((1-(hydroxymethyl)cyclopropyl)methyl)-6-methoxy-5-(3-oxomorpholino)-1H-benzo[d]imidazol-2(3H)-ylidene)benzamide], the values for the IC50 in assay [1] and in assay [2] were 100 to 1000 nM and no more than 100 nM, respectively.
In the same order, the values of `COc1cc2c(cc1N1CCOCC1=O)[nH]/c(=N\C(=O)c1cccc(C(F)F)c1)n2CC1(CO)CC1` [Compound 52, (E)-3-(difluoromethyl)-N-(1-((1-(hydroxymethyl)cyclopropyl)methyl)-6-methoxy-5-(3-oxomorpholino)-1H-benzo[d]imidazol-2(3H)-ylidene)benzamide] are no more than 100 nM and no more than 100 nM.
`COc1cc2c(cc1N1CCOCC1=O)[nH]/c(=N\C(=O)c1cccc(C(F)(F)F)c1)n2CC1(CO)CC1` [Compound 53, (E)-N-(1-((1-(hydroxymethyl)cyclopropyl)methyl)-6-methoxy-5-(3-oxomorpholino)-1H-benzo[d]imidazol-2(3H)-ylidene)-3-(trifluoromethyl)benzamide]: the IC50 in assay [1] and in assay [2] was no more than 100 nM throughout.
